From ChEMBL document CHEMBL1158770, “Cladionol A, a polyketide glycoside from marine-derived fungus Gliocladium species” (J Nat Prod, 2005)
In brackets after ≈: the same amount, converted by molar mass.

Assays:
[1] = system: L1210; assay: Cytotoxicity against mouse L1210 cells; assay type: functional, cell-based
[2] = system: KB; assay: Cytotoxicity against human KB cells; assay type: functional, cell-based

## CCC(C)CC(C)CC(C)C(O[C@@H]1O[C@H](C(=O)OC)[C@@H](O)[C@H](O)[C@@H]1O)C(C)/C=C(\C)C(O)C(C)/C=C(\C)C(O)C(C)/C=C(\C)[C@H](O)[C@@H](C)C(=O)OC[C@H](O)[C@@H](O)[C@@H](O)CO (some centres not stated) [CLADIONOL A]
[1]
  IC50: 5 µg/mL (≈ 5.79 µM)
[2]
  IC50: 7 µg/mL (≈ 8.11 µM)
